Data published in BindingDB's records for doi:10.1021/acs.jmedchem.5b01153 (University of Illinois At Chicago, 2016).
pEC50: −log10 of the molar value. Values belong to the compound of their own block, whether it stands above or below them.

Columns and labels:
[1] = biological target: T1, 5-hydroxytryptamine receptor 2C (Homo sapiens, UniProt P28335); experiment: Agonist activity at recombinant human 5HT2C-INI receptor expressed in Flp-In-293 cells assessed as calcium flux by FLIPR assay
T1 sequence (P28335 whole entry): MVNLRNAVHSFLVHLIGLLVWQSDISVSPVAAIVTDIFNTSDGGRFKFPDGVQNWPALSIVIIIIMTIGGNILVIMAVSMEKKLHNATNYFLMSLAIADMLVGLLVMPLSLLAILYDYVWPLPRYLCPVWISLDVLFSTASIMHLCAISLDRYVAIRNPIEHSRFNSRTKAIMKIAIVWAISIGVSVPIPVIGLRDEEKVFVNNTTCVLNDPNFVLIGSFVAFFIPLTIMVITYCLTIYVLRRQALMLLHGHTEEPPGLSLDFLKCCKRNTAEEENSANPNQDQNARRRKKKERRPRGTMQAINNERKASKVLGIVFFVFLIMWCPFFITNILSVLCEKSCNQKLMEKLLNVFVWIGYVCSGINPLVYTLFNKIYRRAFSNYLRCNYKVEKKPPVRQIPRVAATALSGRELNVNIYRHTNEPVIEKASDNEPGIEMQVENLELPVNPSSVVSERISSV

[2] = biological target: 5-hydroxytryptamine receptor 2B (Homo sapiens, UniProt P41595); experiment: Agonist activity at recombinant human 5HT2B receptor expressed in Flp-In-293 cells assessed as calcium flux by FLIPR assay
Sequence of 5-hydroxytryptamine receptor 2B (P41595 whole entry): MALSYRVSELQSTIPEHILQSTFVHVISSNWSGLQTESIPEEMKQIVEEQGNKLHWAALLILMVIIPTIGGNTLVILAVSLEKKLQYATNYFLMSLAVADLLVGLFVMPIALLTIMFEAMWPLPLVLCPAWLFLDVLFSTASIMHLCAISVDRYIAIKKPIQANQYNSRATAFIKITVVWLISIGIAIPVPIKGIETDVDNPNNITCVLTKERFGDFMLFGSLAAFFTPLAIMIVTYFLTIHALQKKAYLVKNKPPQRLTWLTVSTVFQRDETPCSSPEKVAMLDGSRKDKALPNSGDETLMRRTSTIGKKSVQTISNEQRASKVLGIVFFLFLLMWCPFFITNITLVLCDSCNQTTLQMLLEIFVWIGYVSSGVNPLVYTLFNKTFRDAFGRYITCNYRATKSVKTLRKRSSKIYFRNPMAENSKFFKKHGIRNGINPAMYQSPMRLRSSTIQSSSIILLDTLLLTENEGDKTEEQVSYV

Structure (SMILES): NCC1CC1c1cc(Cl)c(F)cc1OCCF (stereo unspecified)
pEC50 [1]: 6.11

Structure (SMILES): C=CCOc1cc(F)c(Cl)cc1C1CC1CN (stereo unspecified)
pEC50 [2]: 5.71
pEC50 [1]: 6.51

Structure (SMILES): COc1cc(Cl)c(Cl)cc1C1CC1CN (stereo unspecified)
pEC50 [1]: 7.89

Structure (SMILES): COc1ccc(Cl)c(Cl)c1C1CC1CN (stereo unspecified)
pEC50 [1]: 8.96

Structure (SMILES): COc1ccc(F)c(F)c1C1CC1CN (stereo unspecified)
pEC50 [1]: 7.82

Structure (SMILES): NCC1CC1c1c(OCCF)ccc(F)c1F (stereo unspecified)
pEC50 [1]: 6.29

Structure (SMILES): NCC1CC1c1c(OCCF)ccc(Cl)c1F (stereo unspecified)
pEC50 [1]: 6.41

pEC50 [1]: 6.63
Structure (SMILES): NCC1CC1c1c(OCCF)ccc(Cl)c1Cl (stereo unspecified)

Structure (SMILES): C=CCOc1ccc(F)c(F)c1C1CC1CN (stereo unspecified)
pEC50 [1]: 6.82

pEC50 [1]: 9.66
Structure (SMILES): N[C@@H](Cc1c[nH]c2ccc(O)cc12)C(=O)O [OXITRIPTAN]
